# Experimental data taken from patent US12441768B2, “Compositions and methods for treating endometriosis” (EndoMet Biosciences, Inc., priority 2018, dated 2025).
# Read-outs that look alike come from different tables or passages of the source. Where a SMILES comes first, the peptide text is derived from it.
# Target: T1, β-catenin (Homo sapiens, UniProt P35222)
# T1 sequence (P35222 1-781): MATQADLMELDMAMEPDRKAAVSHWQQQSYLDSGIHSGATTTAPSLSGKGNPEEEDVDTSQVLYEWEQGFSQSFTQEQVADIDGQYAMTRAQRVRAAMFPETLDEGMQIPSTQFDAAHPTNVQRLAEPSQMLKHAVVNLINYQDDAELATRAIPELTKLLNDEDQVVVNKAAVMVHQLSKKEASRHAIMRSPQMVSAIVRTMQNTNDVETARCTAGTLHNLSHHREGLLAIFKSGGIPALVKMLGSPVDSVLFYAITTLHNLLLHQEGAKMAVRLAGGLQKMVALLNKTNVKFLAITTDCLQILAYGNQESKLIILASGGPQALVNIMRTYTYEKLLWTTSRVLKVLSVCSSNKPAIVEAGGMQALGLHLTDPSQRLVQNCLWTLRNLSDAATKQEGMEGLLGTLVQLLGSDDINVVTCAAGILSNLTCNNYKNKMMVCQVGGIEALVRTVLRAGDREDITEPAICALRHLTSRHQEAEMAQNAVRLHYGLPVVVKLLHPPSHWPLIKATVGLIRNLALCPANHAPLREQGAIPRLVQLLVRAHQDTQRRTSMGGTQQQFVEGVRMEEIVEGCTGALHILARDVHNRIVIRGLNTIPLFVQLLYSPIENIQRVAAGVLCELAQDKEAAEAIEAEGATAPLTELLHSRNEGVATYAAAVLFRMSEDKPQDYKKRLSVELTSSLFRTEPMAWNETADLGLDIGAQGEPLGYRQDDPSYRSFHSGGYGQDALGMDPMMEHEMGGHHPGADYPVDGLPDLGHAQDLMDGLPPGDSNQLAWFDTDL
# Test: KD50 measurement using competitive fluorescence polarization (FP) with labelled TCF4
# Type: binding
# Details: fluorescence polarization, β-catenin
# Description: Fluorescence polarization (FP) is another method used to analyze protein-ligand interactions. This methodology measures the change in fluorescence light emitted by a labelled compound free vs. conjugated to another compound in solution. Upon binding of the fluorescent molecule to a complex, polarization increases because of limited rotation of the fluorescent tracer. Competitive FP is often utilized in drug screens as it is formatted for high throughput screens in a plate format. This immunoassay is performed by introducing a non-conjugated drug to compete for binding to the labelled competitor-ligand complex, leading to a reduction in polarization. TCF4 protein is utilized for the competitive assay as (1) this protein influences the full activation of the Wnt pathway and (2) shares homology with the β-catenin inhibitors. Exemplary methodology is described in Example 13. Data were analyzed and plotted in Microsoft Excel (Microsoft, Redmond, WA).
# 5 nM of labelled TCF4 protein was added to solution of 100 nM of β-catenin and incubated at room temperature in 96-well plates (Greiner 96 Flat transparent plates, Millipore Sigma, Carlsbad CA). Varying concentrations of β-catenin inhibitor candidate (SEQ ID NO: 404) were then added in a series of serial dilutions from 10 nM to 30 uM of inhibitor in different wells of the plate. The fluorescence polarization was read by Infinite M1000 (Tecan, Baldwin Park CA) at excitation wavelength of 470 nm and measured at emission wavelength of 520 nm. […] The experiments were performed three times and data were analyzed and plotted in Microsoft Excel (Microsoft, Redmond, WA).
Compound,β-Cat FP Hill slope,Kd (read-out: β-Cat FP KD),Kd (β-Cat FP KD)
"CC[C@H](C)[C@@H]1NC(=O)[C@H](CC(C)C)NC(=O)[C@H](Cc2ccccc2)NC(=O)[C@H](Cc2c[nH]c3ccccc23)NC(=O)[C@@H](N)CCCCNC(=O)CCCCCNC(=O)C[C@@H](C(=O)O)NC(=O)[C@H](Cc2c[nH]c3ccccc23)NC(=O)[C@H](C)NC(=O)[C@H](CS)NC1=O [compound 249] (HELM PEPTIDE1{K.W.F.L.I.C.A.W.[O=C(O)[C@H](CC(=O)[*:2])N[*:1]].[O=C(CCCCCN[*:1])[*:2]]}$PEPTIDE1,PEPTIDE1,1:R3-10:R2$$$V2.0)",0.92,400 to 1000 nM,–
CC[C@H](C)[C@H](NC(=O)[C@H](CC(C)C)NC(=O)[C@H](Cc1ccccc1)NC(=O)[C@H](Cc1c[nH]c2ccccc12)NC(=O)[C@@H](N)CCSC)C(=O)N[C@@H](CO)C(=O)N[C@@H](Cc1ccccc1)C(=O)N[C@@H](C)C(=O)NCC(=O)O [compound 8] (H-MWFLISFAG-OH),1.7,1000 to 10000 nM,–
"CCCCCCCCC(=O)N[C@@H](Cc1c[nH]c2ccccc12)C(=O)N(C)[C@@H](C)C(=O)N[C@@H](CCC(N)=O)C(=O)N[C@H]1CCCCNC(=O)CC[C@@H](C(=O)N[C@@H](Cc2c[nH]cn2)C(=O)N[C@H](C(=O)N[C@@H](CCC(N)=O)C(=O)N[C@@H](CCCNC(=N)N)C(=O)N[C@H](C(=O)N[C@@H](Cc2c[nH]c3ccccc23)C(=O)NCC(N)=O)C(C)C)C(C)C)NC(=O)[C@H](CC(=O)O)NC(=O)[C@H](CC(C)C)NC(=O)[C@H](C2CCCCC2)NC1=O [compound 422] (HELM PEPTIDE1{[CCCCCCCCC(=O)[*:2]].W.[meA].Q.K.[O=C([C@@H](N[*:1])C1CCCCC1)[*:2]].L.D.E.H.V.Q.R.V.W.G.[am]}$PEPTIDE1,PEPTIDE1,5:R3-9:R3$$$V2.0)",–,400 to 1000 nM,–
CC[C@H](C)[C@H](NC(=O)[C@H](CO)NC(=O)[C@H](CCC(=O)O)NC(=O)[C@@H]1CCCN1C(=O)[C@H](CC(C)C)NC(=O)[C@H](CCCNC(=N)N)NC(=O)CCNC(C)=O)C(=O)N[C@@H](CC(C)C)C(=O)N[C@@H](CC(=O)O)C(=O)N[C@@H](CCC(=O)O)C(=O)N[C@@H](Cc1c[nH]cn1)C(=O)N[C@@H](Cc1c[nH]c2ccccc12)C(=O)N[C@@H](CCC(N)=O)C(=O)N[C@@H](CCCNC(=N)N)C(=O)N[C@H](C(=O)N[C@@H](Cc1c[nH]c2ccccc12)C(=O)N1CCC[C@H]1C(N)=O)C(C)C [compound 411] (HELM PEPTIDE1{[ac].[bAla].R.L.P.E.S.I.L.D.E.H.W.Q.R.V.W.P.[am]}$$$$V2.0),0.7,1000 to 10000 nM,–
"CC[C@H](C)[C@@H]1NC(=O)[C@H](CC(C)C)NC(=O)[C@@H](NC(=O)[C@H](Cc2c[nH]c3ccccc23)NC(=O)[C@@H](N)CCSC)CCCCNC(=O)CC[C@@H](C(=O)N[C@@H](Cc2ccccc2)C(=O)N[C@@H](Cc2c[nH]c3ccccc23)C(=O)NCC(=O)O)NC1=O [compound 230] (HELM PEPTIDE1{M.W.K.L.I.E.F.W.G}$PEPTIDE1,PEPTIDE1,3:R3-6:R3$$$V2.0)",0.77,< 400 nM,–
"CC[C@H](C)[C@@H]1NC(=O)[C@H](CC(C)C)NC(=O)[C@H](Cc2ccccc2)NC(=O)[C@H](Cc2c[nH]c3ccccc23)NC(=O)[C@@H](N)CCCCNC(=O)CC[C@@H](C(=O)N[C@@H](Cc2c[nH]c3ccccc23)C(=O)NCC(=O)O)NC(=O)[C@H](CO)NC1=O [compound 228] (HELM PEPTIDE1{K.W.F.L.I.S.E.W.G}$PEPTIDE1,PEPTIDE1,1:R3-7:R3$$$V2.0)",0.2,> 30000 nM,–
"CC[C@H](C)[C@@H]1NC(=O)[C@H](CC(C)C)NC(=O)[C@@H](NC(C)=O)CCCCNC(=O)C[C@@H](C(=O)O)NC(=O)[C@H](Cc2c[nH]c3ccccc23)NC(=O)[C@H](Cc2ccccc2)NC(=O)[C@H](C)NC1=O [compound 252] (HELM PEPTIDE1{[ac].K.L.I.A.F.W.D}$PEPTIDE1,PEPTIDE1,2:R3-8:R3$$$V2.0)",–,> 30000 nM,–
CC[C@H](C)[C@H](NC(=O)[C@H](CC(C)C)NC(=O)[C@H](C)NC(=O)[C@H](Cc1c[nH]c2ccccc12)NC(=O)[C@@H](N)CCSC)C(=O)N[C@@H](CO)C(=O)N[C@@H](Cc1ccccc1)C(=O)N[C@@H](Cc1c[nH]c2ccccc12)C(=O)NCC(=O)O [compound 13] (H-MWALISFWG-OH),0.86,400 to 1000 nM,–
"CCCCCCCCCCCC(=O)N[C@@H](Cc1c[nH]c2ccccc12)C(=O)N(C)[C@@H](C)C(=O)N[C@@H](CCC(N)=O)C(=O)N[C@H]1CCCCNC(=O)C[C@@H](C(=O)N[C@@H](Cc2c[nH]cn2)C(=O)N[C@H](C(=O)N[C@@H](CCC(N)=O)C(=O)N[C@@H](C)C(=O)N[C@H](C(=O)N[C@@H](Cc2c[nH]c3ccccc23)C(N)=O)C(C)C)C2CCCCC2)NC(=O)[C@H](CC(N)=O)NC(=O)[C@H](CC(C)C)NC(=O)[C@H]([C@@H](C)CC)NC1=O [compound 459] (HELM PEPTIDE1{[CCCCCCCCCCCC(=O)[*:2]].W.[meA].Q.K.I.L.N.D.H.[O=C([C@@H](N[*:1])C1CCCCC1)[*:2]].Q.A.V.W.[am]}$PEPTIDE1,PEPTIDE1,5:R3-9:R3$$$V2.0)",–,< 400 nM,–
"CC[C@@H]1NC(=O)[C@H]([C@@H](C)CC)NC(=O)[C@H](CC(C)C)NC(=O)[C@H](Cc2ccccc2)NC(=O)[C@H](Cc2c[nH]c3ccccc23)NC(=O)[C@@H](N)CCCCNC(=O)C[C@@H](C(=O)O)NC(=O)[C@H](Cc2c[nH]c3ccccc23)NC(=O)[C@H](C)NC1=O [compound 244] (HELM PEPTIDE1{K.W.F.L.I.[Abu].A.W.D}$PEPTIDE1,PEPTIDE1,1:R3-9:R3$$$V2.0)",1.9,400 to 1000 nM,–
"CC[C@H](C)[C@@H]1NC(=O)[C@H](CC(C)C)NC(=O)[C@H](Cc2ccccc2)NC(=O)[C@@H](NC(C)=O)CCCCNC(=O)C[C@@H](C(=O)O)NC(=O)[C@H](Cc2c[nH]c3ccccc23)NC(=O)[C@H](Cc2ccccc2)NC(=O)[C@H](C)NC1=O [compound 254] (HELM PEPTIDE1{[ac].K.F.L.I.A.F.W.D}$PEPTIDE1,PEPTIDE1,2:R3-9:R3$$$V2.0)",–,> 30000 nM,–
CC[C@H](C)[C@H](NC(=O)[C@H](CC(C)C)NC(=O)[C@H](Cc1ccccc1)NC(=O)[C@H](Cc1c[nH]c2ccccc12)NC(=O)[C@H](CCSC)NC(C)=O)C(=O)N[C@@H](C)C(=O)N[C@@H](Cc1ccccc1)C(=O)N[C@@H](Cc1c[nH]c2ccccc12)C(=O)NCC(=O)O [compound 274] (Ac-MWFLIAFWG-OH),2.2,< 400 nM,–
"CCCCCCCCCCCCCCCC(=O)N[C@@H](Cc1c[nH]c2ccccc12)C(=O)N(C)[C@@H](C)C(=O)N[C@@H](CCC(N)=O)C(=O)N[C@H]1CCCCNC(=O)C[C@@H](C(=O)N[C@@H](Cc2c[nH]cn2)C(=O)N[C@H](C(=O)N[C@@H](CCC(N)=O)C(=O)N[C@@H](C)C(=O)N[C@H](C(N)=O)C(C)C)C2CCCCC2)NC(=O)[C@H](CC(N)=O)NC(=O)[C@H](CC(C)C)NC(=O)[C@H]([C@@H](C)CC)NC1=O [compound 454] (HELM PEPTIDE1{[CCCCCCCCCCCCCCCC(=O)[*:2]].W.[meA].Q.K.I.L.N.D.H.[O=C([C@@H](N[*:1])C1CCCCC1)[*:2]].Q.A.V.[am]}$PEPTIDE1,PEPTIDE1,5:R3-9:R3$$$V2.0)",–,–,1000 to 10000 nM
"CC[C@H](C)[C@@H]1NC(=O)[C@@H](NC(=O)[C@H](CCC(N)=O)NC(=O)[C@H](C)N(C)C(=O)[C@@H](N)Cc2c[nH]c3ccccc23)CCCNC(=O)CC[C@@H](C(=O)N[C@@H](Cc2c[nH]cn2)C(=O)N[C@H](C(=O)N[C@@H](CCC(N)=O)C(=O)N[C@@H](CCCNC(=N)N)C(=O)N[C@H](C(=O)N[C@@H](Cc2c[nH]c3ccccc23)C(=O)NCC(N)=O)C(C)C)C2CCCCC2)NC(=O)[C@H](CC(=O)O)NC(=O)[C@H](CC(C)C)NC1=O [compound 423] (HELM PEPTIDE1{W.[meA].Q.[Orn].I.L.D.E.H.[O=C([C@@H](N[*:1])C1CCCCC1)[*:2]].Q.R.V.W.G.[am]}$PEPTIDE1,PEPTIDE1,4:R3-8:R3$$$V2.0)",0.7,400 to 1000 nM,–
